# Patent US9695192B2, “Fused heterocyclic compounds as ion channel modulators” (GILEAD SCIENCES, INC., priority 2011, dated 2017)
# Read-outs that look alike come from different tables or passages of the source.
# What was measured:
# hNav1.5 Peak INa = hNav1.5 Peak INa (Homo sapiens, UniProt Q14524); assay: Peak INa screening assay (tonic block and use-dependent block); type: cell-based
# Procedure: The assay uses an HEK293 (human embryonic kidney) cell line heterologously expressing the wild-type human cardiac sodium channel, hNav1.5, purchased from Millipore (Billerica, Mass.). No beta subunits were coexpressed with the Na channel alpha subunit. Cells are maintained with standard tissue culture procedures and stable channel expression is maintained with 400 μg/mL Geneticin in the culture medium. […] Experiments are carried out at 23-25° C. […] Currents through open sodium channels are automatically recorded and stored in the Sophion Bioscience Oracle database (Sophion Bioscience, Copenhagen, Denmark). Analysis is performed using QPatch Assay and database software and data are compiled in Excel. Compound stocks are routinely made by the Gilead Sample Bank in plastic vials to 10 mM in dimethyl sulfoxide (DMSO). […] Stocks are sonicated as necessary. […] Compounds are diluted in extracellular solution to 1 μM in glass vials and then transferred to glass well plates before robotic addition to the cells. […] Good separation between the concentrations of test compound to reduce late and peak INa is beneficial to enable separation of the desired effect to reduce late INa-induced electrical and mechanical dysfunction from the undesired effect to reduce peak INa, which can lead to slowing or block of conduction of electrical excitation in the heart. It is contemplated that the compounds of Formula I avoid significant block of peak INa. […] Analysis of peak INa generally requires correction for rundown before determining the % block of peak current by the tested compound. […] Use-dependent block refers to the accumulation of block with increased frequency of channel activation. […] It is therefore expected that reduction of peak INa by compounds of this disclosure will be greater at high heart rates, such as those during tachyarrhythmias, than at normal heart rates. […] The intracellular solution used for the Peak INa assay is the same as outlined for the Late INa assay (see above). […] After establishing the whole cell recording configuration, channels were stimulated to open with low frequency stimulation (0.1 Hz) for 7 minutes so that the recording can be monitored and the extent to which the recording has stabilized can be assessed. […] Both TB and UDB were analyzed by incorporating rundown correction for the peak INa and UDB as calculated by compensating for the small use-dependent effect of the stimulation protocol on peak INa in the absence of compound.
# [1] = target: wild-type human cardiac sodium channel, hNav1.5 (Homo sapiens, UniProt Q14524); assay: Late INa screening assay (QPatch whole cell patch clamp, tefluthrin-enhanced late sodium current); type: cell-based; details: HEK293 hNav1.5, late INa activated with 10 μM Tefluthrin
# Procedure: The late sodium current (Late INa) and peak sodium current (Peak INa) assays are performed on an automated electrophysiology platform, QPatch 16X (Sophion Bioscience, Copenhagen, Denmark), which uses the whole cell patch clamp technique to measure currents through the cell membrane of up to 16 cells at a time. The assay uses an HEK293 (human embryonic kidney) cell line heterologously expressing the wild-type human cardiac sodium channel, hNav1.5, purchased from Millipore (Billerica, Mass.). No beta subunits were coexpressed with the Na channel alpha subunit. Cells are maintained with standard tissue culture procedures and stable channel expression is maintained with 400 μg/mL Geneticin in the culture medium. Cells isolated for use on QPatch are incubated for 5 minutes in Detachin 1X (Genlantis, San Diego, USA) at 37° C. to ensure that 80-90% of the cells are single and not part of a cell cluster. Experiments are carried out at 23-25° C.
# For both the Late INa and Peak INa assays, series resistance compensation is set to 100% and series resistance and whole-cell compensation are performed automatically. Currents are digitized at 25 kHz and low-pass filtered at 12 kHz and 10 kHz for the late and peak INa assays, respectively. Currents through open sodium channels are automatically recorded and stored in the Sophion Bioscience Oracle database (Sophion Bioscience, Copenhagen, Denmark). Analysis is performed using QPatch Assay and database software and data are compiled in Excel.
# Compound stocks are routinely made by the Gilead Sample Bank in plastic vials to 10 mM in dimethyl sulfoxide (DMSO). In some cases, when compounds are not soluble in DMSO, they are made in 100% ethanol. Stocks are sonicated as necessary. The extracellular solution for screening Late INa is composed of: 140 mM NaCl, 4 mM KCl, 1.8 mM CaCl2, 0.75 mM MgCl2 and 5 mM HEPES with pH adjusted to 7.4 using NaOH. The intracellular solution used to perfuse the inside of the cells for both the Late INa and Peak INa assays contains: 120 mM CsF, 20 mM CsCl, 5 mM EGTA, 5 mM HEPES and pH adjusted to 7.4 with CsOH. Compounds are diluted in extracellular solution to 1 μM in glass vials and then transferred to glass well plates before robotic addition to the cells. A 0 mM Na extracellular solution (0 Na-ECF) is used at the end of each experiment for the Late INa and Peak INa assays to measure baseline current contains: 140 mM N-methyl-D-glucamine; 4 mM KCl; 1.8 mM CaCl2; 0.75 mM MgCl2; 5 mM HEPES and pH was adjusted to 7.4 with HCl.
# For the hNav1.5 Late INa assay, sodium channels are activated every 10 seconds (0.1 Hz) by depolarizing the cell membrane to −20 mV for 250 milliseconds (ms) from a holding potential of −120 mV. In response to a −20 mV voltage step, typical hNav1.5 sodium currents activate rapidly to a peak negative current and then inactivate nearly completely within 3-4 ms.
# Compounds were tested to determine their activity in blocking the late sodium current. Late INa was generated by adding 10 μM Tefluthrin (pyrethroid) to the extracellular solution while recording Na currents. To confirm the block of late INa observed using the automated screening method, a second late INa enhancer (ATX-II) and the manual patch clamp method were used. ATX-II and tefluthrin occupy distinct, non-overlapping binding sites and modify Na^+ channel function differently to increase late INa. Compounds tested have been found generally to inhibit the enhanced late INa caused by either late INa enhancer. For the purposes of the screening, late INa is defined as the mean current between 225 ms and 250 ms after stepping to −20 mV to activate Na channels. After establishing the whole cell recording configuration, late INa activator is added to each well 4 times over a 16-17 minute period so that the late component of the Na current reaches a stable value. Compounds were then added (typically at 1 μM), in the presence of the late INa activator, with 3 additions over the course of 7 or 8 minutes. […]
# [2] = at 1 μM, 3 Hz stimulation, holding potential −100 mV, read-out: Peak UDB (use-dependent block of peak INa) % Inhibition
# [3] = read-out: Peak TB (tonic block of peak INa) % Inhibition
# wild-type human cardiac sodium channel, hNav1.5, sequence (Q14524 whole entry): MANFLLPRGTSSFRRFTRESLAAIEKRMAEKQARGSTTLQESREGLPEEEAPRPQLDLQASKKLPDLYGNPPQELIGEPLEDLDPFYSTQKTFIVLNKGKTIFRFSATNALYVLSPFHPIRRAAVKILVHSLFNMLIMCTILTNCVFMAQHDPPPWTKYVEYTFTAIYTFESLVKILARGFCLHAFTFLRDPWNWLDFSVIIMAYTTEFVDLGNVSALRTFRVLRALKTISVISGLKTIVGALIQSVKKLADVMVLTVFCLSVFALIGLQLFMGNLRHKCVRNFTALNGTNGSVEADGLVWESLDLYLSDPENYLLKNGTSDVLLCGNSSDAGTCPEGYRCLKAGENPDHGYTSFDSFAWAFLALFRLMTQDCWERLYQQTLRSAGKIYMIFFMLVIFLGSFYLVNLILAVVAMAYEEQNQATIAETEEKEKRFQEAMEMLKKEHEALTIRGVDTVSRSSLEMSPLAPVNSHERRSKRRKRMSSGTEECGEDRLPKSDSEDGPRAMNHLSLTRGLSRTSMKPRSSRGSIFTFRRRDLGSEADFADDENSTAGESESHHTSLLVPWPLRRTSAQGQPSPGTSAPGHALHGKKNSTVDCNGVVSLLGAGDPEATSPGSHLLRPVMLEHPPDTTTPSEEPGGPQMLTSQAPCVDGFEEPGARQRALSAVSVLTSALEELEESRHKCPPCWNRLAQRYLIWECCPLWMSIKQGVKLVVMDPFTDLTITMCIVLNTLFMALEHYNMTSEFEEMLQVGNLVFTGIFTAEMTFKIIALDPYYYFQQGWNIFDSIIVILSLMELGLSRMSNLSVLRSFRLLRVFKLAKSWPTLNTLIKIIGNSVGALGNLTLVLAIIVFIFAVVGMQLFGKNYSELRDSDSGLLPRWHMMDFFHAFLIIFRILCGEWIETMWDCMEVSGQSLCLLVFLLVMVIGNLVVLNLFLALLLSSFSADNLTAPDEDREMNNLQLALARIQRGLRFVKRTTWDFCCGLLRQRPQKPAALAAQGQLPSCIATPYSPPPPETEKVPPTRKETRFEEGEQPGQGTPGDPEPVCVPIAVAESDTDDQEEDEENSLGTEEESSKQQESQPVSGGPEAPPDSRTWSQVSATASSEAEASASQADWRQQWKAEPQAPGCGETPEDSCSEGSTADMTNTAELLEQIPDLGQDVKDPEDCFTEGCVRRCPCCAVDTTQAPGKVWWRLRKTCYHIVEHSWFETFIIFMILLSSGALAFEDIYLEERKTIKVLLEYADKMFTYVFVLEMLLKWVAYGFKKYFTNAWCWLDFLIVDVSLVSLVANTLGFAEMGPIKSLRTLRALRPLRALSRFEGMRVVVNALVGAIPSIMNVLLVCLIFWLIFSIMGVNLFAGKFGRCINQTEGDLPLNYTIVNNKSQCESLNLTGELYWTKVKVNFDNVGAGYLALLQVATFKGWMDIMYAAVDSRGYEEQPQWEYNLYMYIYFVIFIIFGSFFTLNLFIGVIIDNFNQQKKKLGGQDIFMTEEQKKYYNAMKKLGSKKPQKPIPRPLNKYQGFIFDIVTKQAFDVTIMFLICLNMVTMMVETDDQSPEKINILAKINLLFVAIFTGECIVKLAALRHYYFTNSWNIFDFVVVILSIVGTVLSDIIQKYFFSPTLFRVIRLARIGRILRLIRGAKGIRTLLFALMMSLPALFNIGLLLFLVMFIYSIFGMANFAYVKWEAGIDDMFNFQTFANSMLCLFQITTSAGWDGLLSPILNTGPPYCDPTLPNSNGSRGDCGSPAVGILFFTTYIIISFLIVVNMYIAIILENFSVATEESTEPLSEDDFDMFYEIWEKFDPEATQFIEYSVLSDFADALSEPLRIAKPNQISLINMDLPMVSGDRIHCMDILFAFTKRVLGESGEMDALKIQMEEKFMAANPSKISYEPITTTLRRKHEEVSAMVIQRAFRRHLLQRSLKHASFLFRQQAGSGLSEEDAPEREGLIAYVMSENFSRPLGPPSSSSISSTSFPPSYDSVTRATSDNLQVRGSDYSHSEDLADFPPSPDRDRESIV
# hNav1.5 Peak INa, sequence (Q14524 whole entry): as above
SMILES,inhibition at 1 µM (hNav1.5 Peak INa; [2]) [%],inhibition at 1 µM (hNav1.5 Peak INa; [3]) [%],inhibition at 1 µM [1] [%]
"FC(F)(F)c1ccc(-c2ccc3c(c2)C(NCC2CC2)=NCCO3)cc1 [II-11, N-(cyclopropylmethyl)-7-(4-(trifluoromethyl)phenyl)-2,3-dihydrobenzo[f][1,4]oxazepin-5-amine]",31,11,41
"CN(C)[C@H]1CCN(C2=NCCOc3ccc(-c4ccc(C(F)(F)F)cc4)cc32)C1 [II-15, (S)—N,N-dimethyl-1-(7-(4-(trifluoromethyl)phenyl)-2,3-dihydrobenzo[f][1,4]oxazepin-5-yl)pyrrolidin-3-amine]",27,16,49
"FC(F)(F)c1ccc(-c2ccc3c(c2)C(NCCOc2ccccn2)=NCCO3)cc1 [II-20, N-(2-(pyridin-2-yloxy)ethyl)-7-(4-(trifluoromethyl)phenyl)-2,3-dihydrobenzo[f][1,4]oxazepin-5-amine]",89,30,59
"FC(F)(F)c1ccc(-c2ccc3c(c2)C(NCCOc2ccccc2)=NCCO3)cc1 [II-22, N-(2-phenoxyethyl)-7-(4-(trifluoromethyl)phenyl)-2,3-dihydrobenzo[f][1,4]oxazepin-5-amine]",69,19,60
"CC(C)(C)OC(=O)N1CC[C@H](NC2=NCCOc3ccc(-c4ccc(C(F)(F)F)cc4)cc32)C1 [II-43, (S)-tert-butyl 3-(7-(4-(trifluoromethyl)phenyl)-2,3-dihydrobenzo[f][1,4]oxazepin-5-ylamino)pyrrolidine-1-carboxylate]",31,12,46
"CCN(CC)[C@@H]1CCN(C2=NCCOc3ccc(-c4ccc(C(F)(F)F)cc4)cc32)C1 [II-49, (R)—N,N-diethyl-1-(7-(4-(trifluoromethyl)phenyl)-2,3-dihydrobenzo[f][1,4]oxazepin-5-yl)pyrrolidin-3-amine]",,,11
"CC(C)(C)OC(=O)N[C@@H]1CCN(C2=NCCOc3ccc(-c4ccc(C(F)(F)F)cc4)cc32)C1 [II-50, (R)-tert-butyl 1-(7-(4-(trifluoromethyl)phenyl)-2,3-dihydrobenzo[f][1,4]oxazepin-5-yl)pyrrolidin-3-ylcarbamate]",,,22
"CN(C)[C@@H]1CCN(C2=NCCOc3ccc(-c4ccc(C(F)(F)F)cc4)cc32)C1 [II-51, (R)—N,N-dimethyl-1-(7-(4-(trifluoromethyl)phenyl)-2,3-dihydrobenzo[f][1,4]oxazepin-5-yl)pyrrolidin-3-amine]",,,21
"CN1CCN(C2=NCCOc3ccc(-c4ccc(C(F)(F)F)cc4)cc32)CC1 [II-52, 5-(4-methylpiperazin-1-yl)-7-(4-(trifluoromethyl)phenyl)-2,3-dihydrobenzo[f][1,4]oxazepine]",,,10
"C[C@H]1CN(C(=O)OC(C)(C)C)CCN1C1=NCCOc2ccc(-c3ccc(C(F)(F)F)cc3)cc21 [II-53, (S)-tert-butyl 3-methyl-4-(7-(4-(trifluoromethyl)phenyl)-2,3-dihydrobenzo[f][1,4]oxazepin-5-yl)piperazine-1-carboxylate]",,,2
"FC(F)(F)c1ccc(-c2ccc3c(c2)C(N2CCC(N4CCOCC4)C2)=NCCO3)cc1 (centres unmarked) [II-55, 5-(3-morpholinopyrrolidin-1-yl)-7-(4-(trifluoromethyl)phenyl)-2,3-dihydrobenzo[f][1,4]oxazepine]",,,18
"N[C@H]1CCN(C2=NCCOc3ccc(-c4ccc(C(F)(F)F)cc4)cc32)C1 [II-56, (S)-1-(7-(4-(trifluoromethyl)phenyl)-2,3-dihydrobenzo[f][1,4]oxazepin-5-yl)pyrrolidin-3-amine]",,,17
"CC(C)(C)OC(=O)NC1CCN(C2=NCCOc3ccc(-c4ccc(C(F)(F)F)cc4)cc32)C1 (centres unmarked) [II-57, tert-butyl 1-(7-(4-(trifluoromethyl)phenyl)-2,3-dihydrobenzo[f][1,4]oxazepin-5-yl)pyrrolidin-3-ylcarbamate]",,,23
"FC(F)(F)c1ccc(-c2ccc3c(c2)C(N2CCCC2c2ccccn2)=NCCO3)cc1 (centres unmarked) [II-58, 5-(2-(pyridin-2-yl)pyrrolidin-1-yl)-7-(4-(trifluoromethyl)phenyl)-2,3-dihydrobenzo[f][1,4]oxazepine]",,,18
"FC(F)(F)c1ccc(-c2ccc3c(c2)C(NC2CCNC2)=NCCO3)cc1 (centres unmarked) [II-59, N-(pyrrolidin-3-yl)-7-(4-(trifluoromethyl)phenyl)-2,3-dihydrobenzo[f][1,4]oxazepin-5-amine]",,,8
"FC(F)(F)c1ccc(-c2ccc3c(c2)C(N2CCC(c4ccccn4)C2)=NCCO3)cc1 (centres unmarked) [II-60, 5-(3-(pyridin-2-yl)pyrrolidin-1-yl)-7-(4-(trifluoromethyl)phenyl)-2,3-dihydrobenzo[f][1,4]oxazepine]",25,10,42
"OC(CN[C@@H]1CCN(C2=NCCOc3ccc(-c4ccc(C(F)(F)F)cc4)cc32)C1)COc1cccc2ccccc12 (stereo partly drawn) [II-61, 1-(naphthalen-1-yloxy)-3-((R)-1-(7-(4-(trifluoromethyl)phenyl)-2,3-dihydrobenzo[f][1,4]oxazepin-5-yl)pyrrolidin-3-ylamino)propan-2-ol]",,,12
"CC(C)(C)OC(=O)N1CCC(NC2=NCCOc3ccc(-c4ccc(C(F)(F)F)cc4)cc32)C1 (centres unmarked) [II-62, tert-butyl 3-(7-(4-(trifluoromethyl)phenyl)-2,3-dihydrobenzo[f][1,4]oxazepin-5-ylamino)pyrrolidine-1-carboxylate]",32,8,43
"CC(C)(C)OC(=O)N1CC[C@@H](NC2=NCCOc3ccc(-c4ccc(C(F)(F)F)cc4)cc32)C1 [II-63, (R)-tert-butyl 3-(7-(4-(trifluoromethyl)phenyl)-2,3-dihydrobenzo[f][1,4]oxazepin-5-ylamino)pyrrolidine-1-carboxylate]",31,12,51
